“Also recorded” adds a separate entry of the source.
Key:
[1] = test system: patient with severe spondyloarthropathy; experiment: Findings in a patient with severe spondyloarthropathy (Example 1, 18 month treatment); format: in vivo, human; conditions: for efficacy of previous anti-rheumatic medication: patient history, used alone and in various combinations
Excerpt: The patient is a person who has radiologically verified bilateral sacroilitis and disease of large joints. They are also positive for the HLA-B27 antigen. The patient fulfills the ESSG criteria and the Amor criteria for spondylarthorpathy. […] In addition they have had symptoms also in small peripheral joints such as fingers and toes. […] The previous anti-rheumatic medication has included methotrexate, cyclosporine, infliximab, intramusclar.
During the study the vital signs and blood chemistry was controlled first weekly, then biweekly and after three months once per month.
No corticosteroid injections are given.

spondylarthropathy = conditions: cited from earlier work; for efficacy observed in spondylarthropathy: mainly in the treatment of peripheral arthritis
[2] = test system: patient with psoriasis arthropathy

Cn1cnc([N+](=O)[O-])c1Sc1ncnc2nc[nH]c12 [azathioprine, reference compound]
efficacy of previous anti-rheumatic medication [1]: inefficient

Cc1oncc1C(=O)Nc1ccc(C(F)(F)F)cc1 [leflunomide, reference compound]
efficacy of previous anti-rheumatic medication [1]: inefficient

CN(Cc1cnc2nc(N)nc(N)c2n1)c1ccc(C(=O)N[C@@H](CCC(=O)O)C(=O)O)cc1 [methotrexate, reference compound]
efficacy in sporiasis arthropathy (spondylarthropathy; in vivo): some efficacy | efficacy observed in spondylarthropathy (spondylarthropathy): minor efficacy | efficacy of previous anti-rheumatic medication [1]: inefficient | efficacy of previous anti-rheumatic therapy ([2]; patient history, methotrexate 20 mg per week, cyclosporine 150 mg, discontinued): lack of efficacy

Cc1ccc(NC(=O)c2ccc(CN3CCN(C)CC3)cc2)cc1Nc1nccc(-c2cccnc2)n1 [study drug, 4-[(4-methyl-1-piperazin-1-ylmethyl)-N-[4-methyl-3-[4-(3-pyridinyl)-2-pyrimidinyl]amino]phenyl]benzamide Monomethanesulfonate]
infections during the treatment ([1]; 18 months of treatment): no significant infections | swollen joint count ([1]; after 18 month treatment, 31 before treatment, oral, up to 400 mg per day, added to hydroxychloroquine, prednisone, ibuprofen): 5 | side effects ([1]; after 18 months of treatment): no serious side effects have been observed; also recorded: slight dryness of the skin | health assessment questionnaire score (HAQ) ([1]; after 18 months of treatment, 1.5 before treatment, high score = high disability): 0.75 | time after start at which antirheumatic effect could be observed (movements in shoulder joints improved) ([1]; after study drug was started): two | CRP ([1]; after the treatment (18 months), 42 mg/L before treatment): 11 mg/L | tender joint count ([1]; after the treatment (18 months), 10 before treatment): 1 | erythrocyte sedimentation rate ([1]; after the treatment (18 months), 28 mm/h before treatment): 11 mm/h | pain experienced by the patient, visual analogue scale (VAS) ([1]; after treatment (18 months), 37 mm before treatment): 11 mm | disease activity as estimated by the patient (VAS) ([1]; after treatment (18 months), 69 mm before treatment): 11 mm | side effects or infections during the treatment ([2]; 3 month study): No serious side effects or infections; also recorded: slight tiredness and mild muscle cramps | number of swollen joints ([2]; after three month treatment, from 5, oral, up to 400 mg per day, added to naproxen, injected joints omitted): 2 | BASDAI score ([2]; after three month treatment, from 6.5): 3.1 | number of tender joints ([2]; after three month treatment, from 10): 0 | general pain (VAS) ([2]; after three month treatment, from 33 mm): 12 mm | night pain experienced by the patient (VAS) ([2]; after three month treatment, from 34 mm): 4 mm | ESR ([2]; after three month treatment, from 40): 12 | disease activity (VAS) ([2]; after three month treatment, from 41 mm): 23 mm | CRP ([2]; after three month treatment, from 47): 25

O=C(O)c1cc(/N=N/c2ccc(S(=O)(=O)Nc3ccccn3)cc2)ccc1O [sulfasalazine]
efficacy observed in spondylarthropathy (spondylarthropathy): minor efficacy

infliximab
efficacy of previous anti-rheumatic medication [1]: inefficient

From US20050130986A1, “Treatment of spondylarthropathies” (priority 2003, published 2005)
